Experimental data from US6441043B1, “Glyoxylic acid amides” (priority 1997, dated 2002).

Test: logP determination by HPLC (EEC directive 79/831 Annex V. A8)
Format: physicochemical
Conditions: HPLC gradient method, acetonitrile/0.1% aqueous phosphoric acid
[1] = E/Z mixture, first value (matches the E isomer)
[2] = E/Z mixture, second printed value (matches the Z isomer)
[3] = single isomer (E or Z as in isomer column)

Compound | logP [1] | logP [2] | logP [3] | also measured
CCOc1ccc(CCNC(=O)C(=NOC)c2ccc(C)cc2)cc1OC (mixture of isomers) [Example 5] | 2.87 | 3.05 |  | 
CCOc1ccc(CCNC(=O)C(=NOC)c2ccc(Cl)cc2)cc1OC [Example 12] |  |  | 3.26 | 
CCOc1ccc(CCNC(=O)C(=NOC)c2ccc(Br)cc2)cc1OC (mixture of isomers) [Example 3] | 3.18 | 3.44 |  | 
CCON=C(C(=O)NCCc1ccc(OCC)c(OC)c1)c1ccc(Br)cc1 (mixture of isomers) [Example 19] | 3.51 | 3.80 |  | 
CCOc1ccc(CCNC(=O)C(=NOC)c2ccc(CC)cc2)cc1OC [Example 16] |  |  | 3.04 | 
CCOc1ccc(CCNC(=O)C(=NOC)c2ccc(CC)cc2)cc1OC [Example 17] |  |  | 3.21 | 
CCON=C(C(=O)NCCc1ccc(OCC)c(OC)c1)c1ccc(Cl)cc1 (mixture of isomers) [Example 21] | 3.41 | 3.69 |  | 
CCOc1ccc(CCNC(=O)C(=NOC)c2ccc(CC)cc2)cc1OC (mixture of isomers) [Example 6] | 3.21 | 3.40 |  | 
CCOc1ccc(CCNC(=O)C(=NOC)c2ccc(Br)cc2)cc1OC [Example 9] |  |  | 3.44 | 
CCOc1ccc(CCNC(=O)C(=NOC)c2ccc(Br)cc2)cc1OC [Example 10] |  |  | 3.18 | 
CCOc1ccc(CCNC(=O)C(=NOC)c2ccc(Cl)cc2)cc1OC [Example 11] |  |  | 3.08 | 
CCON=C(C(=O)NCCc1ccc(OCC)c(OC)c1)c1ccc(CC)cc1 (mixture of isomers) [Example 23] | 3.55 | 3.85 |  | 
CCOc1ccc(CCNC(=O)C(=NOC)c2ccc(Cl)cc2)cc1OC (racemic) [Example 1, N-[2-(4-ethoxy-3-methoxyphenyl)-1-ethyl]-2-methoxyimino-2-(4-chlorophenyl)-acetamide] |  |  |  | chromatographic logP [1]: 3.08; chromatographic logP [2]: 3.26
CCON=C(C(=O)NCCc1ccc(OCC)c(OC)c1)c1ccc(C)cc1 (mixture of isomers) [Example 22] | 3.19 | 3.48 |  | 
CCON=C(C(=O)NCCc1ccc(OCC)c(OC)c1)c1ccc(C)cc1 [Example 27] |  |  | 3.48 | 
CCON=C(C(=O)NCCc1ccc(OCC)c(OC)c1)c1ccc(Br)cc1 [Example 24] |  |  | 3.80 | 
CCOc1ccc(CCNC(=O)C(=NOC)c2ccc(C)cc2)cc1OC [Example 15] |  |  | 2.87 | 
